Results published in patent US11673898B2, “Substituted inhibitors of menin-MLL and methods of use” (Kura Oncology, Inc., priority 2016, dated 2023).

Target: T1, Menin MLL 4-43 (Homo sapiens, UniProt O00255)
T1 sequence (O00255 1-610): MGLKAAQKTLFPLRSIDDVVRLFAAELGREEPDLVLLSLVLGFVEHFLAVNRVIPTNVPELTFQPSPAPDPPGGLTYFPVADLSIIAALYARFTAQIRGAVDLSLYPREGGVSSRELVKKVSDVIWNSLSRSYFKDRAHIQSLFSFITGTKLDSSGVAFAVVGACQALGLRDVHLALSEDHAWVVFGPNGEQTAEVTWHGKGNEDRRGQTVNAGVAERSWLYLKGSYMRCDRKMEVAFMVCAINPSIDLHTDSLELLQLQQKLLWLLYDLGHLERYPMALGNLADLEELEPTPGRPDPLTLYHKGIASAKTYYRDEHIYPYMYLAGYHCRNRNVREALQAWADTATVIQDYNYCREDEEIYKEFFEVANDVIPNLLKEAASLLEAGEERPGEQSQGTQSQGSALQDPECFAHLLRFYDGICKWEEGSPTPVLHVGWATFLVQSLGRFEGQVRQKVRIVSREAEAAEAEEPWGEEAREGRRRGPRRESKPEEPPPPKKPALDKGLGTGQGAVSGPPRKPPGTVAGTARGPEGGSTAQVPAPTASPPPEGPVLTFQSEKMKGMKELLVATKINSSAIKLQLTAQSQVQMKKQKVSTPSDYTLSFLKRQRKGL
Test: Fluorescence polarization (FP) competition assay of the menin-MLL interaction
Type: binding
Conditions: fluorescence polarization assay; read-out: Menin MLL 4-43 IC50

Row | IC50 [nM] | SMILES
1 | < 50 | CNc1nc(NC2CCN(Cc3ccc4c(cc(C#N)n4C[C@H](C)N4CCNCC4=O)c3C)CC2)c2cc(CC(F)(F)F)sc2n1 [Compound 225]
2 | < 50 | CNc1nc(NC2CCN(Cc3ccc4c(cc(C#N)n4C[C@H](C)N4CCN(C)CC4=O)c3C)CC2)c2cc(CC(F)(F)F)sc2n1 [Compound 226]
3 | < 50 | CNc1nc(NC2CCN(Cc3ccc4c(cc(C#N)n4CC(C)c4ccc(=O)[nH]c4)c3C)CC2)c2cc(CC(F)(F)F)sc2n1 (centres unmarked) [Compound 229]
4 | 50 to 250 | CNc1nc(NC2CCN(Cc3ccc4c(cc(C#N)n4CC(C)c4cn[nH]c4)c3C)CC2)c2cc(CC(F)(F)F)sc2n1 (centres unmarked) [Compound 230]
5 | < 50 | CNc1nc(NC2CCN(Cc3ccc4c(cc(C#N)n4C[C@H](C)N4CCN(S(C)(=O)=O)C(CO)C4)c3C)CC2)c2cc(CC(F)(F)F)sc2n1 (some centres unmarked) [Compound 233]
6 | 50 to 250 | Cc1c(CN2CCC(Nc3nc(CF)nc4sc(CC(F)(F)F)cc34)CC2)ccc2c1cc(C#N)n2C[C@H](C)N1CCN(S(C)(=O)=O)CC1 [Compound 241]
7 | > 1000 | Cc1nc(NC2CCN(Cc3ccc4c(cc(C#N)n4C[C@H](C)N4CCN(S(C)(=O)=O)CC4)c3C)CC2)c2c(C)c(CC(F)(F)F)sc2n1 [Compound 242]
8 | < 50 | CNc1nc(NC2CCN(Cc3ccc4c(cc(C#N)n4C[C@H](C)N4CCN(C)C(=O)C4)c3C)CC2)c2cc(CC(F)(F)F)sc2n1 [Compound 243]
9 | < 50 | CNc1nc(NC2CCN(Cc3ccc4c(cc(C#N)n4C[C@H](C)N4CCNC(=O)C4)c3C)CC2)c2cc(CC(F)(F)F)sc2n1 [Compound 244]
10 | 50 to 250 | CC(=O)OCc1nc(NC2CCN(Cc3ccc4c(cc(C#N)n4C[C@H](C)N4CCN(S(C)(=O)=O)CC4)c3C)CC2)c2cc(CC(F)(F)F)sc2n1 [Compound 245]
11 | < 50 | Cc1c(CN2CCC(Nc3nc(CO)nc4sc(CC(F)(F)F)cc34)CC2)ccc2c1cc(C#N)n2C[C@H](C)N1CCN(S(C)(=O)=O)CC1 [Compound 246]
12 | < 50 | CNc1nc(NC2CCN(Cc3ccc4c(cc(C#N)n4CC(C)C4CCN(S(C)(=O)=O)CC4)c3C)CC2)c2cc(CC(F)(F)F)sc2n1 (centres unmarked) [Compound 247]
13 | < 50 | CNc1nc(NC2CCN(Cc3ccc4c(cc(C#N)n4C[C@H](C)N4CCN(S(=O)(=O)CC(C)C)CC4)c3C)CC2)c2cc(CC(F)(F)F)sc2n1 [Compound 248]
14 | < 50 | CNc1nc(NC2CCN(Cc3ccc4c(cc(C#N)n4C[C@H](C)N4CCC(NS(C)(=O)=O)CC4)c3C)CC2)c2cc(CC(F)(F)F)sc2n1 [Compound 249]
15 | < 50 | CNc1nc(NC2CCN(Cc3ccc4c(cc(C#N)n4C[C@H](C)N4CCN(S(=O)(=O)CC5CC5)CC4)c3C)CC2)c2cc(CC(F)(F)F)sc2n1 [Compound 250]
16 | < 50 | CNc1nc(NC2CCN(Cc3ccc4c(cc(C#N)n4C[C@H](C)N4CCN(S(=O)(=O)C(C)C)CC4)c3C)CC2)c2cc(CC(F)(F)F)sc2n1 [Compound 251]
17 | > 1000 | CNc1nc(NC2CCN(Cc3ccc4c(cc(C#N)n4C[C@H](C)N4CCN(S(C)(=O)=O)CC4)c3C)CC2)c2c(C)c(CC(F)(F)F)sc2n1 [Compound 252]
18 | 50 to 250 | Cc1nc(NC2CCN(Cc3ccc4c(cc(C#N)n4C[C@H](C)N4CCC(S(C)(=O)=O)CC4)c3C)CC2)c2cc(C(O)C(F)(F)F)sc2n1 (some centres unmarked) [Compound 280]

Row | IC50 [nM] | SMILES
19 | < 50 | CNc1nc(NC2CCN(Cc3ccc4c(cc(C#N)n4C[C@H](C)N4C5CCC4CN(S(C)(=O)=O)C5)c3C)CC2)c2cc(CC(F)(F)F)sc2n1 [Compound 282]
20 | < 50 | Cc1nc(NC2CCN(Cc3ccc4c(cc(C#N)n4C[C@H](C)N4C5CCC4CN(S(C)(=O)=O)C5)c3C)CC2)c2cc(CC(F)(F)F)sc2n1 [Compound 283]
21 | 20 to 1000 | Cc1c(CN2CCC(Nc3ncnc4sc(CC(F)(F)F)cc34)CC2)ccc2c1cc(C#N)n2CCN1CCC(NS(C)(=O)=O)CC1 [Compound 1000]
22 | 20 to 1000 | CC(=O)NC1CCN(CCn2c(C#N)cc3c(C)c(CN4CCC(Nc5ncnc6sc(CC(F)(F)F)cc56)CC4)ccc32)CC1 [Compound 1001]
23 | 50 to 250 | Cc1c(CN2CCC(Nc3ncnc4sc(CC(F)(F)F)cc34)CC2)ccc2c1cc(C#N)n2CCc1ccc(NC(=O)C2(C#N)CC2)cc1 [Compound 1002]
24 | 50 to 250 | Cc1c(CN2CCC(Nc3ncnc4sc(CC(F)(F)F)cc34)CC2)ccc2c1cc(C#N)n2CCc1ccc(NC(=O)CC#N)cc1 [Compound 1003]
25 | > 1000 | C=CC(=O)N(C)c1ccc(CCn2c(C#N)cc3c(C)c(CN4CCC(Nc5ncnc6sc(CC(F)(F)F)cc56)CC4)ccc32)cc1 [Compound 1010]
26 | 20 to 1000 | C#CCOc1cc(CCn2c(C#N)cc3c(C)c(CN4CCC(Nc5ncnc6sc(CC(F)(F)F)cc56)CC4)ccc32)ccc1NC(=O)C=C [Compound 1011]
27 | > 1000 | C=CC(=O)Nc1ccc(CCn2c(C#N)cc3c(C)c(CN4CCC(Nc5ncnc6sc(CC(F)(F)F)cc56)CC4)ccc32)cc1OCc1cn(CCOCCOCCOCCNC(=O)CCCC[C@H]2SC[C@H]3NC(=O)N[C@H]32)nn1 [Compound 1012]
28 | 50 to 250 | C/C=C(\C#N)C(=O)Nc1ccc(CCn2c(C#N)cc3c(C)c(CN4CCC(Nc5ncnc6sc(CC(F)(F)F)cc56)CC4)ccc32)cc1 [Compound 1013]
29 | < 50 | CNc1nc(NC2CCN(Cc3ccc4c(cc(C#N)n4CCN4CCC(S(C)(=O)=O)CC4)c3C)CC2)c2cc(CC(F)(F)F)sc2n1 [Compound 1020]
30 | < 50 | Cc1nc(NC2CCN(Cc3ccc4c(cc(C#N)n4CCN4CCC(S(C)(=O)=O)CC4)c3C)CC2)c2cc(CC(F)(F)F)sc2n1 [Compound 1021]
31 | < 50 | CNc1nc(NC2CCN(Cc3ccc4c(cc(C#N)n4CCN4CCN(S(C)(=O)=O)CC4)c3C)CC2)c2cc(CC(F)(F)F)sc2n1 [Compound 1022]
32 | 50 to 250 | Cc1nc(NC2CCN(Cc3ccc4c(cc(C#N)n4CCN4CCN(S(C)(=O)=O)CC4)c3C)CC2)c2cc(CC(F)(F)F)sc2n1 [Compound 1023]
33 | < 50 | CNc1nc(NC2CCN(Cc3ccc4c(cc(C#N)n4CCN4CCN(C)C(=O)C4)c3C)CC2)c2cc(CC(F)(F)F)sc2n1 [Compound 1024]
34 | < 50 | CNc1nc(NC2CCN(Cc3ccc4c(cc(C#N)n4CCN4CCNC(=O)C4)c3C)CC2)c2cc(CC(F)(F)F)sc2n1 [Compound 1025]
35 | < 50 | Cc1c(CN2CCC(Nc3ncnc4sc(CC(F)(F)F)cc34)CC2)ccc2c1cc(C#N)n2CCNC(=O)COCCOCCNC(=O)OC(C)(C)C [Compound 1027]
